Source: article doi:10.1101/155374v1, “A trapped double bond-photoisomerization intermediate in a bacterial photoreceptor” (biorxiv, 2017)

Target: T1, Slr1393g3 (GAF3 domain of cyanobacteriochrome Slr1393) (Synechocystis sp. PCC 6803, UniProt P73184)
T1 construct: isolated GAF3 domain, residues 441-596 modelled (155 amino acids stated), N-terminal His tag (tag residues seen at both ends), expressed in E. coli; one monomer per ASU, dimer in solution for Pr state
T1 sequence (P73184 441-596): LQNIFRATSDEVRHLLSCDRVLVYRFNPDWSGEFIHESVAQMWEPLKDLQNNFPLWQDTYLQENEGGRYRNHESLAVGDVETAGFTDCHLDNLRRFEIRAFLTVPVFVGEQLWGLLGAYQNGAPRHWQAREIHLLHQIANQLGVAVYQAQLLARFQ
Experiment: X-ray crystallography
Assay type: binding
Conditions: covalent; thioether bond of Cys528 to C3(1) of PCB; 5DFY in vitro assembled Pr 1.6 A; 5DFX in vivo Pr 1.8 A; 5M82 Pg (15-E) 1.86 A; 5M85 X-ray induced intermediate 2.1 A

SMILES: C/C=C1/C(=C/c2[nH]c(/C=C3N=C(/C=C4\NC(=O)C(CC)=C4C)C(C)=C\3CCC(=O)O)c(CCC(=O)O)c2C)NC(=O)[C@@H]1C [PCB, phycocyanobilin]
- X-ray crystallography: The PCB chromophore is covalently bound to Cys528 on helix a4
